{"source": "paper PMC11354262", "about": "(International Journal of Molecular Sciences, 2024)", "origin": "cited, not measured here", "key": {"[1]": {"details": "hydrolysis by enzymes in intestine and liver"}}, "data": [{"smiles": "CCCCCCCCCCCCCCCC(=O)NCCO", "note": "[PEA, Palmitoylethanolamide]", "values": [{"measurement": "lipid half-life", "setting": "[1]", "result": "about 25 min"}, {"measurement": "logarithm of partition coefficient (log P)", "result": "> 5"}, {"measurement": "solubility in water", "result": "practically insoluble in water"}]}]}
